Source: patent US12077503B2, “Substituted cyclic amides and their use as herbicides” (FMC CORPORATION, priority 2015, dated 2024)

Experiments:
Format in all cases: in vivo
[1] = system: ivy-leaved morning glory (Ipomoea hederacea); test: Test G Post-Emergence Protocol
Protocol: (§1) Seeds of corn (Zea mays), giant foxtail (Setaria faberi), barnyardgrass (Echinochloa crus-galli), ivy-leaved morning glory (Ipomoea hederacea), redroot pigweed (Amaranthus retroflexus) and velvetleaf (Abutilon theophrasti) were sown in standard soil in pots. After cultivation for 8 days under controlled conditions in a glasshouse (at 24/16° C., day/night; 14 hours light; 65% humidity), the plants were sprayed with an aqueous spray solution derived from the formulation of the technical active ingredient in acetone/water (50:50) solution containing 0.5% Tween 20 (polyoxyethylene sorbitan monolaurate, CAS RN 9005-64-5) to give a final dose of 15.625, 62.5 or 250 g/ha of test compound.
(§2) The test plants were then grown on under controlled conditions in a glasshouse (at 24/16° C., day/night; 14 hours light; 65% humidity) and watered twice daily. After 13 days the test was evaluated (100=total damage to plant; 0=no damage to plant). A dash (-) means no test result.

[2] = system: giant foxtail (Setaria faberi); test: Test G Post-Emergence Protocol
Protocol: as §1, §2

[3] = system: barnyardgrass (Echinochloa crus-galli); test: Test G Post-Emergence Protocol
Protocol: as §1, §2

[4] = system: velvetleaf (Abutilon theophrasti); test: Test G Post-Emergence Protocol
Protocol: as §1, §2

[5] = system: redroot pigweed (Amaranthus retroflexus); test: Test G Post-Emergence Protocol
Protocol: as §1, §2

corn (Zea mays) [6] = test: Test G Post-Emergence Protocol
Protocol: as §1, §2

[7] = system: ivy-leaved morning glory (Ipomoea hederacea); test: Test G Pre-Emergence Protocol; settings: evaluated after 13 days
Protocol: as §1, with “one day” for “8 days”
as §2

[8] = system: giant foxtail (Setaria faberi); test: Test G Pre-Emergence Protocol; settings: evaluated after 13 days
Protocol: as §1, with “one day” for “8 days”
as §2

[9] = system: barnyardgrass (Echinochloa crus-galli); test: Test G Pre-Emergence Protocol; settings: evaluated after 13 days
Protocol: as §1, with “one day” for “8 days”
as §2

[10] = system: velvetleaf (Abutilon theophrasti); test: Test G Pre-Emergence Protocol; settings: evaluated after 13 days
Protocol: as §1, with “one day” for “8 days”
as §2

[11] = system: redroot pigweed (Amaranthus retroflexus); test: Test G Pre-Emergence Protocol; settings: evaluated after 13 days
Protocol: as §1, with “one day” for “8 days”
as §2

corn (Zea mays) [12] = test: Test G Pre-Emergence Protocol; settings: evaluated after 13 days
Protocol: as §1, with “one day” for “8 days”
as §2

[13] = 15.625 g ai/ha, evaluated after 13 days (100=total damage to plant; 0=no damage to plant)
[14] = 62.5 g ai/ha, evaluated after 13 days
[15] = 250 g ai/ha, evaluated after 13 days
[16] = 62.5 g ai/ha, 100=total damage to plant, 0=no damage to plant

COc1ccc([C@@H]2CN(C)C(=O)[C@H]2C(=O)Nc2ccccc2F)cc1[N+](=O)[O-] (racemic) [Compound 1417]
10: Barnyardgrass damage rating [3, 13] | Velvetleaf damage rating [4, 13] | Pigweed, Redroot damage rating (100=total damage to plant; 0=no damage to plant) [5, 14] | Corn damage rating (100=total damage to plant; 0=no damage to plant) (corn (Zea mays) [6]; [14])
90: Foxtail, Giant damage rating (100=total damage to plant; 0=no damage to plant) ([8]; 250 g ai/ha)
0: Morningglory, Ivy-leaved damage rating [1, 13] | Foxtail, Giant damage rating [2, 13] | Corn damage rating (corn (Zea mays) [6]; [13]) | Morning-glory, Ivy-leaved damage rating (100=total damage to plant; 0=no damage to plant) ([7]; 15.625 g ai/ha) | plant damage rating, Morningglory, Ivy-leaved [7, 16] | Foxtail, Giant damage rating (100=total damage to plant; 0=no damage to plant) ([8]; 15.625 g ai/ha) | Barnyardgrass damage rating (100=total damage to plant; 0=no damage to plant) ([9]; 15.625 g ai/ha) | Velvetleaf damage rating (100=total damage to plant; 0=no damage to plant) ([10]; 15.625 g ai/ha) | plant damage rating, Velvetleaf [10, 16] | Velvetleaf damage rating (100=total damage to plant; 0=no damage to plant) ([10]; 250 g ai/ha) | Pigweed, Redroot damage rating (100=total damage to plant; 0=no damage to plant) ([11]; 15.625 g ai/ha) | plant damage rating, Pigweed, Redroot [11, 16] | Corn damage rating (100=total damage to plant; 0=no damage to plant) (corn (Zea mays) [12]; 15.625 g ai/ha) | plant damage rating, Corn (corn (Zea mays) [12]; [16]) | Corn damage rating (100=total damage to plant; 0=no damage to plant) (corn (Zea mays) [12]; 250 g ai/ha)
70: Foxtail, Giant damage rating (100=total damage to plant; 0=no damage to plant) [2, 14] | damage to plant, Foxtail, Giant (100=total damage to plant; 0=no damage to plant) [2, 15]
40: Barnyardgrass damage rating (100=total damage to plant; 0=no damage to plant) [3, 14]
60: damage to plant, Barnyardgrass (100=total damage to plant; 0=no damage to plant) [3, 15] | plant damage rating, Barnyardgrass [9, 16]
30: damage to plant, Morningglory, Ivy-leaved (100=total damage to plant; 0=no damage to plant) [1, 15] | damage to plant, Pigweed, Redroot (100=total damage to plant; 0=no damage to plant) [5, 15] | Morningglory, Ivy-leaved damage rating (100=total damage to plant; 0=no damage to plant) ([7]; 250 g ai/ha) | Pigweed, Redroot damage rating (100=total damage to plant; 0=no damage to plant) ([11]; 250 g ai/ha)
80: plant damage rating, Foxtail, Giant [8, 16] | Barnyardgrass damage rating (100=total damage to plant; 0=no damage to plant) ([9]; 250 g ai/ha)
20: Morningglory, Ivy-leaved damage rating (100=total damage to plant; 0=no damage to plant) [1, 14] | Velvetleaf damage rating (100=total damage to plant; 0=no damage to plant) [4, 14] | damage to plant, Velvetleaf (100=total damage to plant; 0=no damage to plant) [4, 15] | Pigweed, Redroot damage rating [5, 13] | damage to plant, Corn (100=total damage to plant; 0=no damage to plant) (corn (Zea mays) [6]; [15])
